The test system of this experiment is CD2F1 mice, L1210 leukemia ip, survival T/C. Put plainly: NCI In Vivo Anticancer Drug Screen. Data for tumor model L1210 Leukemia (intraperitoneal) in CD2F1 (CDF1) mice. The conditions noted are these: higher = longer survival. In a few lines:
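Mice carrying a transplanted tumor received test compound or vehicle alone. The value is the measurement in the treated group divided by that in the vehicle-treated control group.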

The mark [1] stands for this setting: endpoint: mean survival time, dose: 100.0 mg/kg/injection, schedule: Q04DX003 (ip), vehicle: saline with Tween-80.
Setting [2] is: endpoint: mean survival time, dose: 200.0 mg/kg/injection, schedule: Q04DX003 (ip), vehicle: saline with Tween-80.
[3] abbreviates: endpoint: mean survival time, dose: 400.0 mg/kg/injection, schedule: Q04DX003 (ip), vehicle: saline with Tween-80.
Setting [4] is: endpoint: mean survival time, dose: 50.0 mg/kg/injection, schedule: Q01DX009 (ip), vehicle: saline with Tween-80.
Where [5] appears, read: endpoint: mean survival time, dose: 50.0 mg/kg/injection, schedule: Q01DX009 (ip), vehicle: Klucel (hydroxypropylcellulose) (HPC).
Where [6] appears, read: endpoint: mean survival time, dose: 100.0 mg/kg/injection, schedule: Q01DX009 (ip), vehicle: Klucel (hydroxypropylcellulose) (HPC).
The mark [7] stands for this setting: endpoint: mean survival time, dose: 100.0 mg/kg/injection, schedule: Q04DX002 (ip), vehicle: saline with Tween-80.
Setting [8] is: endpoint: mean survival time, dose: 200.0 mg/kg/injection, schedule: Q04DX002 (ip), vehicle: saline with Tween-80.
[9] abbreviates: endpoint: mean survival time, dose: 400.0 mg/kg/injection, schedule: Q04DX002 (ip), vehicle: saline with Tween-80.

Several values for one entry are separate records, joined by “and”; a condition that tells them apart may be missing. Equal entries are not always repeated. Toxic doses and inconclusive results are not listed.

For `S=c1nn[nH]n1C1CCCCC1`, the T/C (endpoint: mean survival time, dose: 25.0 mg/kg/injection, schedule: Q04DX003 (ip), vehicle: saline with Tween-80) was 96 % of control; the T/C (endpoint: mean survival time, dose: 50.0 mg/kg/injection, schedule: Q04DX003 (ip), vehicle: saline with Tween-80) was 98 % of control; the T/C under setting [1] is 92 % of control.
Consider `C[Si](C)(C)c1c(F)c(F)c(F)c(F)c1F`, for which the T/C runs as follows: under setting [1], 96 % of control; under setting [2], 94 % of control; under setting [3], 88 % of control.
In the case of `O=C1c2ccccc2C(=O)N1Cc1ccc([N+](=O)[O-])cc1Cl`, the T/C by setting is: under setting [4], 87 % of control; (endpoint: mean survival time, dose: 100.0 mg/kg/injection, schedule: Q01DX009 (ip), vehicle: saline with Tween-80) 98 % of control; (endpoint: mean survival time, dose: 200.0 mg/kg/injection, schedule: Q01DX009 (ip), vehicle: saline with Tween-80) 94 % of control.
Turning to `COc1ccc(NC(=O)Nc2ccc(C)c([N+](=O)[O-])c2)c(OC)c1`, the T/C runs as follows: (endpoint: mean survival time, dose: 12.5 mg/kg/injection, schedule: Q01DX009 (ip), vehicle: saline with Tween-80) 97 % of control; (endpoint: mean survival time, dose: 25.0 mg/kg/injection, schedule: Q01DX009 (ip), vehicle: saline with Tween-80) 103 % of control; under setting [4], 88 % of control and 94 % of control.
Turning to `O=C(c1ccccc1)C1(c2ccccc2)CC1`, the T/C is 108 % of control under setting [1], 101 % of control under setting [2] and 101 % of control under setting [3].
As for `Cc1ccc(N2C(=O)C=CC2=O)cc1`, the T/C by setting is: (endpoint: mean survival time, dose: 5.0 mg/kg/injection, schedule: Q01DX009 (ip), vehicle: saline sonified) 94 % of control; (endpoint: mean survival time, dose: 5.0 mg/kg/injection, schedule: Q04DX003 (ip), vehicle: saline sonified) 96 % of control; (endpoint: mean survival time, dose: 10.0 mg/kg/injection, schedule: Q04DX003 (ip), vehicle: saline sonified) 98 % of control; (endpoint: mean survival time, dose: 20.0 mg/kg/injection, schedule: Q01DX009 (ip), vehicle: saline sonified) 90 % of control; (endpoint: mean survival time, dose: 20.0 mg/kg/injection, schedule: Q04DX003 (ip), vehicle: saline sonified) 96 % of control; (endpoint: mean survival time, dose: 100.0 mg/kg/injection, schedule: Q01DX009 (ip), vehicle: acetone) 88 % of control. For the same compound, the T/C runs as follows: (endpoint: mean survival time, dose: 200.0 mg/kg/injection, schedule: Q01DX009 (ip), vehicle: acetone) 88 % of control; (endpoint: mean survival time, dose: 400.0 mg/kg/injection, schedule: Q01DX009 (ip), vehicle: acetone) 93 % of control.
Consider `CCCNCC(=O)O[C@]1(CC)C(=O)OCc2c1cc1n(c2=O)Cc2cc3ccccc3nc2-1`, for which the T/C reads like this: (endpoint: median survival time, dose: 7.5 mg/kg/injection, schedule: Q04DX002 (ip), vehicle: saline) 112 % of control; (endpoint: median survival time, dose: 30.0 mg/kg/injection, schedule: Q04DX002 (ip), vehicle: saline) 159 % of control and 204 % of control; (endpoint: median survival time, dose: 60.0 mg/kg/injection, schedule: Q04DX002 (ip), vehicle: saline) 116 % of control and 106 % of control.
With `N=c1c2c(C(N)=O)cn(C3OC(CO)C(O)C3O)c2ncn1N` (stereo not given), the T/C reads like this: (endpoint: mean survival time, dose: 14.7 mg/kg/injection, schedule: Q01DX005 (ip), vehicle: water) 110 % of control; (endpoint: mean survival time, dose: 22.0 mg/kg/injection, schedule: Q01DX005 (ip), vehicle: water) 118 % of control; (endpoint: mean survival time, dose: 25.0 mg/kg/injection, schedule: Q01DX005 (ip), vehicle: water) 117 % of control; (endpoint: mean survival time, dose: 33.0 mg/kg/injection, schedule: Q01DX005 (ip), vehicle: water) 121 % of control; (endpoint: mean survival time, dose: 50.0 mg/kg/injection, schedule: Q01DX005 (ip), vehicle: water) 120 % of control; (endpoint: mean survival time, dose: 75.0 mg/kg/injection, schedule: Q01DX005 (ip), vehicle: water) 106 % of control. For the same compound, the T/C (endpoint: mean survival time, dose: 100.0 mg/kg/injection, schedule: Q01DX005 (ip), vehicle: water) is 98 % of control.
As to `COC12C(COC(C)=O)C3=C(C(=O)C(C)=C(N4CCCCC4)C3=O)N1CC1NC12` (stereo not given), the T/C by setting is: (endpoint: mean survival time, dose: 0.75 mg/kg/injection, schedule: Q01DX001 (ip), vehicle: distilled water + Tween-80) 97 % of control; (endpoint: mean survival time, dose: 1.5 mg/kg/injection, schedule: Q01DX001 (ip), vehicle: distilled water + Tween-80) 103 % of control; (endpoint: mean survival time, dose: 3.0 mg/kg/injection, schedule: Q01DX001 (ip), vehicle: distilled water + Tween-80) 105 % of control and 112 % of control; (endpoint: mean survival time, dose: 6.0 mg/kg/injection, schedule: Q01DX001 (ip), vehicle: distilled water + Tween-80) 122 % of control and 105 % of control; (endpoint: mean survival time, dose: 12.0 mg/kg/injection, schedule: Q01DX001 (ip), vehicle: distilled water + Tween-80) 112 % of control.
As to `COc1ccc(CNc2ccc([N+](=O)[O-])c3nonc23)cc1`, the T/C reads like this: under setting [5], 94 % of control; under setting [6], 86 % of control; (endpoint: mean survival time, dose: 200.0 mg/kg/injection, schedule: Q01DX009 (ip), vehicle: Klucel (hydroxypropylcellulose) (HPC)) 94 % of control.
As for `CN(C)C(=O)C(Cc1c[nH]c2ccccc12)NC(=O)c1ccccc1` (stereo not given), the T/C by setting is: under setting [7], 95 % of control; under setting [8], 103 % of control; under setting [9], 98 % of control.
Turning to `OC(CF)CCl` (stereo not given), the T/C is 96 % of control under setting [4]; 100 % of control (endpoint: mean survival time, dose: 100.0 mg/kg/injection, schedule: Q04DX003 (ip), vehicle: saline); 121 % of control (endpoint: mean survival time, dose: 200.0 mg/kg/injection, schedule: Q04DX003 (ip), vehicle: saline).
As for `COc1cc2c(cc1OC)C1CC(=O)CCN1CC2` (stereo not given), the T/C by setting is: (endpoint: mean survival time, dose: 12.5 mg/kg/injection, schedule: Q01DX009 (ip), vehicle: Klucel (hydroxypropylcellulose) (HPC)) 97 % of control and 104 % of control; (endpoint: mean survival time, dose: 25.0 mg/kg/injection, schedule: Q01DX009 (ip), vehicle: Klucel (hydroxypropylcellulose) (HPC)) 97 % of control and 98 % of control; under setting [5], 95 % of control and 98 % of control; under setting [6], 97 % of control and 100 % of control; (endpoint: median survival time, dose: 12.5 mg/kg/injection, schedule: Q01DX009 (ip), vehicle: Klucel (hydroxypropylcellulose) (HPC)) 97 % of control; (endpoint: median survival time, dose: 25.0 mg/kg/injection, schedule: Q01DX009 (ip), vehicle: Klucel (hydroxypropylcellulose) (HPC)) 94 % of control. The T/C runs as follows: (endpoint: median survival time, dose: 50.0 mg/kg/injection, schedule: Q01DX009 (ip), vehicle: Klucel (hydroxypropylcellulose) (HPC)) 92 % of control; (endpoint: median survival time, dose: 100.0 mg/kg/injection, schedule: Q01DX009 (ip), vehicle: Klucel (hydroxypropylcellulose) (HPC)) 101 % of control.
For the compound `Nc1nc2c(ncn2-c2ccccc2Br)c(=O)[nH]1`, the T/C runs as follows: (endpoint: mean survival time, dose: 75.0 mg/kg/injection, schedule: Q01DX001 (ip), vehicle: saline with Tween-80) 101 % of control; (endpoint: mean survival time, dose: 150.0 mg/kg/injection, schedule: Q01DX001 (ip), vehicle: saline with Tween-80) 100 % of control; (endpoint: mean survival time, dose: 300.0 mg/kg/injection, schedule: Q01DX001 (ip), vehicle: saline with Tween-80) 101 % of control.
`Cc1ccc(C2c3c(nc[nH]c3=O)OC2(C)C)cc1` (stereo not given): the T/C under setting [7] was 114 % of control, the T/C under setting [8] was 106 % of control and the T/C under setting [9] was 111 % of control.
With `CC(=O)O.CC(=O)O.[Co].[NH2-].[NH2-].[NH2-].[NH2-]`, the T/C reads like this: (endpoint: mean survival time, dose: 6.25 mg/kg/injection, schedule: Q04DX002 (ip), vehicle: saline with Tween-80) 93 % of control; (endpoint: mean survival time, dose: 12.5 mg/kg/injection, schedule: Q04DX002 (ip), vehicle: saline with Tween-80) 87 % of control.
Consider `CC(=O)CC(=O)c1ccccc1.CC(=O)CC(=O)c1ccccc1.[Pd]`, for which the T/C was 98 % of control (endpoint: mean survival time, dose: 3.13 mg/kg/injection, schedule: Q04DX003 (ip), vehicle: distilled water + Tween-80); 89 % of control (endpoint: mean survival time, dose: 6.25 mg/kg/injection, schedule: Q04DX003 (ip), vehicle: distilled water + Tween-80); 100 % of control (endpoint: mean survival time, dose: 12.5 mg/kg/injection, schedule: Q04DX003 (ip), vehicle: distilled water + Tween-80); 86 % of control (endpoint: mean survival time, dose: 25.0 mg/kg/injection, schedule: Q04DX003 (ip), vehicle: distilled water + Tween-80); 87 % of control (endpoint: mean survival time, dose: 50.0 mg/kg/injection, schedule: Q04DX003 (ip), vehicle: distilled water + Tween-80); 89 % of control (endpoint: mean survival time, dose: 100.0 mg/kg/injection, schedule: Q04DX003 (ip), vehicle: distilled water + Tween-80). In addition, the T/C (endpoint: mean survival time, dose: 200.0 mg/kg/injection, schedule: Q04DX003 (ip), vehicle: distilled water + Tween-80) is 93 % of control.
`N=C(N=c1cc(C(=O)NC(=N)NC(=N)Nc2ccc(Cl)cc2)n(C(=N)NC(=N)Nc2ccc(Cl)cc2)c(C(=O)NC(=N)NC(=N)Nc2ccc(Cl)cc2)c1)NC(=N)Nc1ccc(Cl)cc1`: the T/C reads like this: under setting [1], 98 % of control; under setting [2], 100 % of control; under setting [3], 100 % of control.
Take `CC1CCC(C(C)C)/C(=N/NC(=O)CC#N)C1` (stereo not given): the T/C is 98 % of control (endpoint: mean survival time, dose: 100.0 mg/kg/injection, schedule: Q01DX001 (ip), vehicle: saline) and 95 % of control (endpoint: mean survival time, dose: 200.0 mg/kg/injection, schedule: Q01DX001 (ip), vehicle: saline).

Source of the values: PubChem BioAssay AID256 (DTP/NCI, 2004).
